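1) Cells in 96-well plates. 2) Compound, 48 h, 5 concentrations. 3) Linear interpolation between surrounding doses. 4) Unreached endpoint = highest concentration. TGI is the concentration that stops growth completely.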
The compounds below were run on U251 CNS (assay: inhibition of tumour cell growth, NCI panel, 48 h).

Compound | TGI
C[C@@H]1CC[C@H]2[C@H](C)C(OC3O[C@@H]4O[C@@]5(C)CC[C@H]6[C@H](C)CC[C@@H]([C@@H]3C)[C@@]46O5)O[C@@H]3O[C@@]4(C)CC[C@@H]1[C@]32O4 (stereo not given in full) | > 100 µM
CN1CCC(C(O)(c2ccccc2)c2ccc(Br)cc2)CC1 (stereo not given) | 43.1 µM
CC(=O)Nc1cccc(N2C(=O)/C(=C\c3cccc(Oc4ccccc4)c3)SC2c2ccccc2)c1 (stereo not given) | > 100 µM
O=c1c(Sc2c(SCSc3cnc4ccccc4c3Sc3c[nH]c4ccccc4c3=O)cnc3ccccc23)c[nH]c2ccccc12 | > 100 µM
CSc1nc(=O)cnn1C | > 100 µM
Nc1ncc2ncn(C3CCC(CO)O3)c2n1 (stereo not given) | > 100 µM

The compounds below were run on SK-MEL-28 melanoma (assay: inhibition of tumour cell growth, NCI panel, 48 h).

Compound | TGI
O=NNc1ccc(S(=O)(=O)c2ccc3ccccc3c2)cn1 | > 100 µM
C[C@@H]1CC[C@H]2[C@H](C)C(OC3O[C@@H]4O[C@@]5(C)CC[C@H]6[C@H](C)CC[C@@H]([C@@H]3C)[C@@]46O5)O[C@@H]3O[C@@]4(C)CC[C@@H]1[C@]32O4 (stereo not given in full) | > 100 µM
CN1CCC(C(O)(c2ccccc2)c2ccc(Br)cc2)CC1 (stereo not given) | 35.1 µM
CC(=O)Nc1cccc(N2C(=O)/C(=C\c3cccc(Oc4ccccc4)c3)SC2c2ccccc2)c1 (stereo not given) | > 100 µM
O=c1c(Sc2c(SCSc3cnc4ccccc4c3Sc3c[nH]c4ccccc4c3=O)cnc3ccccc23)c[nH]c2ccccc12 | > 100 µM
CSc1nc(=O)cnn1C | > 100 µM
Nc1ncc2ncn(C3CCC(CO)O3)c2n1 (stereo not given) | > 100 µM

These compounds were tested on RPMI-8226 leukemia (assay: inhibition of tumour cell growth, NCI panel, 48 h).

Compound | TGI
C[C@@H]1CC[C@H]2[C@H](C)C(OC3O[C@@H]4O[C@@]5(C)CC[C@H]6[C@H](C)CC[C@@H]([C@@H]3C)[C@@]46O5)O[C@@H]3O[C@@]4(C)CC[C@@H]1[C@]32O4 (stereo not given in full) | > 100 µM
CN1CCC(C(O)(c2ccccc2)c2ccc(Br)cc2)CC1 (stereo not given) | 45.8 µM
CC(=O)Nc1cccc(N2C(=O)/C(=C\c3cccc(Oc4ccccc4)c3)SC2c2ccccc2)c1 (stereo not given) | 89 µM
O=c1c(Sc2c(SCSc3cnc4ccccc4c3Sc3c[nH]c4ccccc4c3=O)cnc3ccccc23)c[nH]c2ccccc12 | > 100 µM
CSc1nc(=O)cnn1C | > 100 µM
Nc1ncc2ncn(C3CCC(CO)O3)c2n1 (stereo not given) | > 100 µM

The compounds below were run on M14 melanoma (assay: inhibition of tumour cell growth, NCI panel, 48 h).

Compound | TGI
O=NNc1ccc(S(=O)(=O)c2ccc3ccccc3c2)cn1 | > 100 µM
C[C@@H]1CC[C@H]2[C@H](C)C(OC3O[C@@H]4O[C@@]5(C)CC[C@H]6[C@H](C)CC[C@@H]([C@@H]3C)[C@@]46O5)O[C@@H]3O[C@@]4(C)CC[C@@H]1[C@]32O4 (stereo not given in full) | > 100 µM
CN1CCC(C(O)(c2ccccc2)c2ccc(Br)cc2)CC1 (stereo not given) | 28.7 µM
CC(=O)Nc1cccc(N2C(=O)/C(=C\c3cccc(Oc4ccccc4)c3)SC2c2ccccc2)c1 (stereo not given) | > 100 µM
O=c1c(Sc2c(SCSc3cnc4ccccc4c3Sc3c[nH]c4ccccc4c3=O)cnc3ccccc23)c[nH]c2ccccc12 | > 100 µM
CSc1nc(=O)cnn1C | > 100 µM
Nc1ncc2ncn(C3CCC(CO)O3)c2n1 (stereo not given) | > 100 µM

Each compound was assayed on EKVX NSCLC (assay: inhibition of tumour cell growth, NCI panel, 48 h).

Compound | TGI
O=NNc1ccc(S(=O)(=O)c2ccc3ccccc3c2)cn1 | > 100 µM
C[C@@H]1CC[C@H]2[C@H](C)C(OC3O[C@@H]4O[C@@]5(C)CC[C@H]6[C@H](C)CC[C@@H]([C@@H]3C)[C@@]46O5)O[C@@H]3O[C@@]4(C)CC[C@@H]1[C@]32O4 (stereo not given in full) | > 100 µM
CN1CCC(C(O)(c2ccccc2)c2ccc(Br)cc2)CC1 (stereo not given) | > 100 µM
CC(=O)Nc1cccc(N2C(=O)/C(=C\c3cccc(Oc4ccccc4)c3)SC2c2ccccc2)c1 (stereo not given) | > 100 µM
O=c1c(Sc2c(SCSc3cnc4ccccc4c3Sc3c[nH]c4ccccc4c3=O)cnc3ccccc23)c[nH]c2ccccc12 | > 100 µM
CSc1nc(=O)cnn1C | > 100 µM
Nc1ncc2ncn(C3CCC(CO)O3)c2n1 (stereo not given) | > 100 µM

These compounds were tested on 786-0 renal (assay: inhibition of tumour cell growth, NCI panel, 48 h).

Compound | TGI
O=NNc1ccc(S(=O)(=O)c2ccc3ccccc3c2)cn1 | > 100 µM
C[C@@H]1CC[C@H]2[C@H](C)C(OC3O[C@@H]4O[C@@]5(C)CC[C@H]6[C@H](C)CC[C@@H]([C@@H]3C)[C@@]46O5)O[C@@H]3O[C@@]4(C)CC[C@@H]1[C@]32O4 (stereo not given in full) | > 100 µM
CN1CCC(C(O)(c2ccccc2)c2ccc(Br)cc2)CC1 (stereo not given) | 27.5 µM
CC(=O)Nc1cccc(N2C(=O)/C(=C\c3cccc(Oc4ccccc4)c3)SC2c2ccccc2)c1 (stereo not given) | > 100 µM
O=c1c(Sc2c(SCSc3cnc4ccccc4c3Sc3c[nH]c4ccccc4c3=O)cnc3ccccc23)c[nH]c2ccccc12 | > 100 µM
CSc1nc(=O)cnn1C | > 100 µM
Nc1ncc2ncn(C3CCC(CO)O3)c2n1 (stereo not given) | > 100 µM

These compounds were tested on SR leukemia (assay: inhibition of tumour cell growth, NCI panel, 48 h).

Compound | TGI
O=NNc1ccc(S(=O)(=O)c2ccc3ccccc3c2)cn1 | > 100 µM
C[C@@H]1CC[C@H]2[C@H](C)C(OC3O[C@@H]4O[C@@]5(C)CC[C@H]6[C@H](C)CC[C@@H]([C@@H]3C)[C@@]46O5)O[C@@H]3O[C@@]4(C)CC[C@@H]1[C@]32O4 (stereo not given in full) | > 100 µM
CN1CCC(C(O)(c2ccccc2)c2ccc(Br)cc2)CC1 (stereo not given) | 47.6 µM
CC(=O)Nc1cccc(N2C(=O)/C(=C\c3cccc(Oc4ccccc4)c3)SC2c2ccccc2)c1 (stereo not given) | 47.1 µM
O=c1c(Sc2c(SCSc3cnc4ccccc4c3Sc3c[nH]c4ccccc4c3=O)cnc3ccccc23)c[nH]c2ccccc12 | 25 µM
CSc1nc(=O)cnn1C | > 100 µM
Nc1ncc2ncn(C3CCC(CO)O3)c2n1 (stereo not given) | > 100 µM

What follows are compounds tested on SW-620 colon (assay: inhibition of tumour cell growth, NCI panel, 48 h).

Compound | TGI
O=NNc1ccc(S(=O)(=O)c2ccc3ccccc3c2)cn1 | > 100 µM
C[C@@H]1CC[C@H]2[C@H](C)C(OC3O[C@@H]4O[C@@]5(C)CC[C@H]6[C@H](C)CC[C@@H]([C@@H]3C)[C@@]46O5)O[C@@H]3O[C@@]4(C)CC[C@@H]1[C@]32O4 (stereo not given in full) | > 100 µM
CN1CCC(C(O)(c2ccccc2)c2ccc(Br)cc2)CC1 (stereo not given) | 61.1 µM
CC(=O)Nc1cccc(N2C(=O)/C(=C\c3cccc(Oc4ccccc4)c3)SC2c2ccccc2)c1 (stereo not given) | > 100 µM
O=c1c(Sc2c(SCSc3cnc4ccccc4c3Sc3c[nH]c4ccccc4c3=O)cnc3ccccc23)c[nH]c2ccccc12 | > 100 µM
CSc1nc(=O)cnn1C | > 100 µM
Nc1ncc2ncn(C3CCC(CO)O3)c2n1 (stereo not given) | > 100 µM

These compounds were tested on NCI-H460 lung (assay: inhibition of tumour cell growth, NCI panel, 48 h).

Compound | TGI
O=NNc1ccc(S(=O)(=O)c2ccc3ccccc3c2)cn1 | > 100 µM
C[C@@H]1CC[C@H]2[C@H](C)C(OC3O[C@@H]4O[C@@]5(C)CC[C@H]6[C@H](C)CC[C@@H]([C@@H]3C)[C@@]46O5)O[C@@H]3O[C@@]4(C)CC[C@@H]1[C@]32O4 (stereo not given in full) | > 100 µM
CN1CCC(C(O)(c2ccccc2)c2ccc(Br)cc2)CC1 (stereo not given) | 62.5 µM
CC(=O)Nc1cccc(N2C(=O)/C(=C\c3cccc(Oc4ccccc4)c3)SC2c2ccccc2)c1 (stereo not given) | > 100 µM
O=c1c(Sc2c(SCSc3cnc4ccccc4c3Sc3c[nH]c4ccccc4c3=O)cnc3ccccc23)c[nH]c2ccccc12 | > 100 µM
CSc1nc(=O)cnn1C | > 100 µM
Nc1ncc2ncn(C3CCC(CO)O3)c2n1 (stereo not given) | > 100 µM

These compounds were tested on A498 renal (assay: inhibition of tumour cell growth, NCI panel, 48 h).

Compound | TGI
O=NNc1ccc(S(=O)(=O)c2ccc3ccccc3c2)cn1 | > 100 µM
C[C@@H]1CC[C@H]2[C@H](C)C(OC3O[C@@H]4O[C@@]5(C)CC[C@H]6[C@H](C)CC[C@@H]([C@@H]3C)[C@@]46O5)O[C@@H]3O[C@@]4(C)CC[C@@H]1[C@]32O4 (stereo not given in full) | > 100 µM
CC(=O)Nc1cccc(N2C(=O)/C(=C\c3cccc(Oc4ccccc4)c3)SC2c2ccccc2)c1 (stereo not given) | > 100 µM
Nc1ncc2ncn(C3CCC(CO)O3)c2n1 (stereo not given) | > 100 µM

These compounds were tested on MDA-MB-231 breast (assay: inhibition of tumour cell growth, NCI panel, 48 h).

Compound | TGI
O=NNc1ccc(S(=O)(=O)c2ccc3ccccc3c2)cn1 | > 100 µM
C[C@@H]1CC[C@H]2[C@H](C)C(OC3O[C@@H]4O[C@@]5(C)CC[C@H]6[C@H](C)CC[C@@H]([C@@H]3C)[C@@]46O5)O[C@@H]3O[C@@]4(C)CC[C@@H]1[C@]32O4 (stereo not given in full) | > 100 µM
CN1CCC(C(O)(c2ccccc2)c2ccc(Br)cc2)CC1 (stereo not given) | 48.8 µM
CC(=O)Nc1cccc(N2C(=O)/C(=C\c3cccc(Oc4ccccc4)c3)SC2c2ccccc2)c1 (stereo not given) | > 100 µM
O=c1c(Sc2c(SCSc3cnc4ccccc4c3Sc3c[nH]c4ccccc4c3=O)cnc3ccccc23)c[nH]c2ccccc12 | > 100 µM
CSc1nc(=O)cnn1C | > 100 µM
Nc1ncc2ncn(C3CCC(CO)O3)c2n1 (stereo not given) | > 100 µM

Each compound was assayed on RXF 393 renal (assay: inhibition of tumour cell growth, NCI panel, 48 h).

Compound | TGI
CN1CCC(C(O)(c2ccccc2)c2ccc(Br)cc2)CC1 (stereo not given) | 64.4 µM
CC(=O)Nc1cccc(N2C(=O)/C(=C\c3cccc(Oc4ccccc4)c3)SC2c2ccccc2)c1 (stereo not given) | > 100 µM
CSc1nc(=O)cnn1C | > 100 µM

Each compound was assayed on HOP-62 NSCLC (assay: inhibition of tumour cell growth, NCI panel, 48 h).

Compound | TGI
O=NNc1ccc(S(=O)(=O)c2ccc3ccccc3c2)cn1 | > 100 µM
C[C@@H]1CC[C@H]2[C@H](C)C(OC3O[C@@H]4O[C@@]5(C)CC[C@H]6[C@H](C)CC[C@@H]([C@@H]3C)[C@@]46O5)O[C@@H]3O[C@@]4(C)CC[C@@H]1[C@]32O4 (stereo not given in full) | > 100 µM
CN1CCC(C(O)(c2ccccc2)c2ccc(Br)cc2)CC1 (stereo not given) | 83.8 µM
CC(=O)Nc1cccc(N2C(=O)/C(=C\c3cccc(Oc4ccccc4)c3)SC2c2ccccc2)c1 (stereo not given) | > 100 µM
O=c1c(Sc2c(SCSc3cnc4ccccc4c3Sc3c[nH]c4ccccc4c3=O)cnc3ccccc23)c[nH]c2ccccc12 | > 100 µM
CSc1nc(=O)cnn1C | > 100 µM
Nc1ncc2ncn(C3CCC(CO)O3)c2n1 (stereo not given) | > 100 µM

The compounds below were run on SF-295 CNS (assay: inhibition of tumour cell growth, NCI panel, 48 h).

Compound | TGI
O=NNc1ccc(S(=O)(=O)c2ccc3ccccc3c2)cn1 | > 100 µM
C[C@@H]1CC[C@H]2[C@H](C)C(OC3O[C@@H]4O[C@@]5(C)CC[C@H]6[C@H](C)CC[C@@H]([C@@H]3C)[C@@]46O5)O[C@@H]3O[C@@]4(C)CC[C@@H]1[C@]32O4 (stereo not given in full) | > 100 µM
CN1CCC(C(O)(c2ccccc2)c2ccc(Br)cc2)CC1 (stereo not given) | 45.7 µM
CC(=O)Nc1cccc(N2C(=O)/C(=C\c3cccc(Oc4ccccc4)c3)SC2c2ccccc2)c1 (stereo not given) | > 100 µM
O=c1c(Sc2c(SCSc3cnc4ccccc4c3Sc3c[nH]c4ccccc4c3=O)cnc3ccccc23)c[nH]c2ccccc12 | > 100 µM
CSc1nc(=O)cnn1C | > 100 µM
Nc1ncc2ncn(C3CCC(CO)O3)c2n1 (stereo not given) | > 100 µM

What follows are compounds tested on UO-31 renal (assay: inhibition of tumour cell growth, NCI panel, 48 h).

Compound | TGI
O=NNc1ccc(S(=O)(=O)c2ccc3ccccc3c2)cn1 | 58.4 µM
CN1CCC(C(O)(c2ccccc2)c2ccc(Br)cc2)CC1 (stereo not given) | 33.1 µM
CC(=O)Nc1cccc(N2C(=O)/C(=C\c3cccc(Oc4ccccc4)c3)SC2c2ccccc2)c1 (stereo not given) | > 100 µM
O=c1c(Sc2c(SCSc3cnc4ccccc4c3Sc3c[nH]c4ccccc4c3=O)cnc3ccccc23)c[nH]c2ccccc12 | > 100 µM
CSc1nc(=O)cnn1C | > 100 µM
Nc1ncc2ncn(C3CCC(CO)O3)c2n1 (stereo not given) | > 100 µM

From PubChem BioAssay (NCI)
